The series in a line: Human HepG2 cell viability assay in 384 well format. The format is toxicity, cell-based. On the set-up: dose 125 nL, time 70.5 hour; concentration not given beside the values. To be noted: HepG2 cells, read-out: Inhibition.

Each structure is given as a SMILES string.

Turning to `COCCN1CCN(CC2CCCCO2)CC1` (stereo not given), the cytotoxicity at 70.5 h was determined as 38.7%.
In the case of `COc1ccc(C(C)=O)cc1CN1CCn2cccc2C1C` (stereo not given) it was -6.89%.
In the case of `CC(=O)c1cccc(NC(=O)N(CC(F)F)C2CC2)c1` it was 19.6%; in that of `CCN(CC)S(=O)(=O)c1ccc(CNC(=O)N2CCCCCC2)cc1`, -7.35%.
Take `Cc1cccc(C)c1OCCCN1CCN(CC2CCCO2)CC1` (stereo not given): the cytotoxicity at 70.5 h was found to be 18.9%.
`COc1ccc(C2(C(=O)NC3CCc4nccn4C3)CCCC2)cc1` (stereo not given): the cytotoxicity at 70.5 h was -3%.
For `CS(=O)(=O)C1(C(=O)NC2CCc3nccn3C2)CCCC1` (stereo not given) the value was -4.12%.
In the case of `Cc1cc(NC(=O)NCc2nccn2C)ccc1OC(C)C` it was -6.18%; in that of `Cc1ccc(Br)cc1S(=O)(=O)NCCc1nnc[nH]1`, 11.5%.
With `COc1cc(C(=O)NS(=O)(=O)c2cc(Cl)sc2Cl)ccc1OC(F)F`, the cytotoxicity at 70.5 h was -5.6%.
On to `COc1ccc(C(=O)NS(=O)(=O)c2cc(Cl)sc2Cl)cc1OC(F)F`, for which the cytotoxicity at 70.5 h was -3.93%.
In the case of `COCCCOc1ccc(C(=O)N(C)CCC(C)C)cn1` it was 20.8%; in that of `Cc1cnn(CCNCc2c(C)nn(C)c2Cl)c1`, -4.35%.
Consider `COC(=O)CNC(=O)CCc1cc(Cl)cs1`, for which the cytotoxicity at 70.5 h stood at 6.93%.
For `COC(=O)CNC(=O)CCc1cc(Br)cs1` the value was -3.56%.
For `CCc1nc(CN(C)C(=O)c2ccc(OCCCOC)nc2)cs1` the value was -7.45%.
In the case of `CN(Cc1cnn(C)c1)C(=O)C(c1ccccc1)N1CCSCC1` (stereo not given) it was -9.84%; in that of `COc1ccc(C(C)NCCC(N)=O)cc1F` (stereo not given), 1.06%; in that of `O=C(NCc1nnc2n1CCC2)c1ccc(Br)s1`, -5.66%.
As to `COC(=O)c1ccoc1CN(C)CC(=O)NC1CC1`, the cytotoxicity at 70.5 h was -5.08%.
In the case of `COC(=O)c1ccoc1CN(C)CC(=O)NC1CCS(=O)(=O)C1` (stereo not given) it was 3.53%; in that of `CNC(=O)CN(C)C(=O)c1ccc(-c2nc(C)cs2)cc1`, -5.78%.
For `CC(NS(N)(=O)=O)c1ccc(OCc2ccc(F)cc2)cc1` (stereo not given) the value was -0.493%.
As to `COc1ccc(N2CCC(NC(=O)c3sccc3C)CC2)cc1`, the cytotoxicity at 70.5 h was found to be 18.3%.
`CN1CCC(NC(=O)c2cc(Br)cc(Cl)c2O)C1=O` (stereo not given): the cytotoxicity at 70.5 h is -1.22%.
In the case of `CC(C)OCCN1CCC(Nc2ncc(Br)cn2)CC1` it was -7.14%; in that of `CNC(=O)c1cc(NC(=O)Nc2cnn(CC(C)C)c2)ccc1F`, -4.7%.
For `Cc1cccc(COc2ccc(C(C)NC(=O)CNC(N)=O)cc2)c1` (stereo not given) the value was -0.269%; for `O=C(C1CCCOC1)N1CCN(CC(F)(F)F)c2ccccc21` (stereo not given), -1.7%.
In the case of `O=C(C1COCCO1)N1CCN(CC(F)(F)F)c2ccccc21` (stereo not given) it was -1.12%; in that of `CN1CCC(NC(=O)c2cc(F)cc(Cl)c2O)C1=O` (stereo not given), -2.94%.
Consider `COC(=O)CC1CCCCN1CC(=O)NCCc1ccc(F)cc1` (stereo not given), for which the cytotoxicity at 70.5 h is 1.06%.
In the case of `COC(=O)CC1CCCCN1CC(=O)Nc1ccc(F)cc1Cl` (stereo not given) it was 21.6%; in that of `COC(=O)c1ccoc1CN(C1CC1)C1CCS(=O)(=O)C1` (stereo not given), -0.821%.
For `COC(=O)CC1CCCCN1CC(=O)Nc1cc(F)ccc1F` (stereo not given) the value was -4.9%.
`CCCS(=O)(=O)NCc1ncc(C)c(OC)c1C`: the cytotoxicity at 70.5 h turned out to be 9.44%.
For `CC1CN(c2ncnc3sccc23)CCN1c1nccs1` (stereo not given) the value was -0.696%.
As for `CC1CCN(C(=O)CCN2Cc3ccccc3C[C@H]2C(N)=O)C1` (stereo not given in full), the cytotoxicity at 70.5 h is -6.72%.
For `COC(=O)C1CN(Cc2ccn(-c3ccc(F)cc3)n2)CCO1` (stereo not given) the value was 5.92%; for `CC(C)(C)c1noc(CCC(=O)N2CCNC(=O)C2)n1`, 7.96%; for `COc1ccc2c(c1)CCCC2CC(=O)O` (stereo not given), -19.3%.
In the case of `Cc1cc(C(=O)N2CCNC(=O)C2)c(C)n1CC(F)(F)F` it was 26.8%; in that of `Cc1cc(CNc2cccc(C(=O)N(C)c3ccccc3)c2)no1`, -0.804%.
For `O=C(Cc1cccs1)NCC1(O)CCSCC1` the value was -3.88%; for `CS(=O)(=O)CCCC(=O)Nc1cc(Cl)c(Cl)cn1`, 0.966%.
For the compound `CS(=O)(=O)CCC(=O)Nc1cc(Cl)c(Cl)cn1`, the cytotoxicity at 70.5 h came to 26.6%.
In the case of `COCCCC(=O)Nc1cc(Cl)c(Cl)cn1` it was 24.5%.
For `O=C(OC1CCC1)c1ncccc1OCC(F)(F)F` the value was 15.8%; for `CS(=O)(=O)NC(=O)c1cnc2c(cnn2C2CCCC2)c1`, -4.29%.
For `Cc1ccnc(C(NC(=O)c2oc(C)nc2C)C2CC2)n1` (stereo not given) the value was -3.47%; for `CN(C)CCCNC(=O)c1ccnc(OCc2ccccc2)c1`, -1.38%.
With `CCn1cc(S(=O)(=O)NCC(OC)c2cccc(Cl)c2)cn1` (stereo not given), the cytotoxicity at 70.5 h is -6.64%.
In the case of `O=C(OC1CCC1)c1ncccc1C(F)(F)F`, the cytotoxicity at 70.5 h is -3.86%.
With `Cc1csc(CCNC(=O)C2CCOC2)n1` (stereo not given), the cytotoxicity at 70.5 h is -2.45%.
For `Cc1cnn(CCNCC(O)COc2cccc(C(F)(F)F)c2)c1` (stereo not given) the value was 0.0235%.
In the case of `COc1ccc(CCNC(=O)C(C)Nc2cc(C)ccc2C)cc1` (stereo not given) it was -8.81%; in that of `O=C(c1sccc1C1CC1)N1CCN(c2nccs2)CC1`, 6.38%; in that of `CC(NC(=O)CNS(C)(=O)=O)c1ccccc1Oc1ccccc1` (stereo not given), -7.15%.
`CCS(=O)(=O)CC(=O)NC(C)c1ccccc1Oc1ccccc1` (stereo not given): the cytotoxicity at 70.5 h turned out to be 2.99%.
In the case of `CC(C)(C)c1cnc(CN2CCC(CN3CCOCC3)CC2)o1` it was 22.6%; in that of `CC(C)(O)CN1CCN(C(=O)c2cccn2Cc2ccccc2)CC1`, -6.76%; in that of `CC(NC(=O)CSCC(N)=O)c1ccccc1Oc1ccccc1` (stereo not given), 16.5%.
For `CN(C)c1ccccc1CN1CCC(N2CCCC2=O)CC1` the value was 17.8%.
For `Cc1cc(F)cc2c(N3CCS(=O)(=O)CC3)c(C#N)cnc12` the value was 0.465%; for `COc1cc2c(cc1CNC(=O)Cc1cc(C)on1)OC(C)C2` (stereo not given), -8.66%; for `CC(=O)Nc1ccc(CNc2cccc(OCCF)c2)cc1`, -5.76%.
With `COCc1nc(CNc2cc(C)on2)cs1`, the cytotoxicity at 70.5 h is -3.59%.
For `Cc1cc(NCc2csc(C)n2)no1` the value was -4.29%; for `CC(C)OCCC(=O)N1CCN(CC(O)c2ccccc2)CC1` (stereo not given), -1.62%; for `O=C(c1ccc(-n2cccc2)c(F)c1)N1CCCN2CCCC2C1` (stereo not given), 8.53%.
For `CCOc1cncc(N2CCOCC2)n1` the value was -7.42%; for `CCc1nc(CN2CC(C(=O)OC)O[C@H](C)C2)cs1` (stereo not given in full), -8.81%.
In the case of `CCc1nc2c(s1)C(N(C)C(=O)c1cc[nH]n1)CCC2` (stereo not given) it was -10.2%; in that of `CC(O)CN1CCN(C(=O)c2cccn2Cc2cccnc2)CC1` (stereo not given), -11.4%.
Consider `Cc1ncsc1C(=O)NCCNC(=O)OC(C)(C)C`, for which the cytotoxicity at 70.5 h was -2.69%.
For `O=C(Nc1ccc2c(ccn2CCN2CCOCC2)c1)c1ccncc1` the value was -1.62%.
For `CC(C)C1CCCN1CC(=O)NCc1ccc(OCC(N)=O)cc1` (stereo not given) the value was 2.47%; for `NC(=O)CNC1(c2ccc(Br)cc2)CCOCC1`, 22.4%; for `COC1CCN(CC(=O)NCc2ccc(OCC(N)=O)cc2)CC1`, 0.0627%.
For `Cc1nn(C)c(N2CCCN(C)CC2)c1CNC(=O)CC(C)(C)C`, the cytotoxicity at 70.5 h amounted to 3.8%.
For `CCC(CC)C(=O)NCc1c(C)nn(C)c1N1CCCN(C)CC1` the value was 22.5%; for `Cc1nn(C)c(N2CCCN(C)CC2)c1CNC(=O)CC1CCCC1`, 0.191%; for `COC(=O)C1CCCN1CC(=O)NCc1ccc(OCC(N)=O)cc1` (stereo not given), 4.54%.
In the case of `O=C(CNC1(c2ccc(Cl)cc2)CCOCC1)NC1CCCC1` it was 1.78%; in that of `O=C1CN(c2ccc(CNC(=O)Nc3nccs3)cc2)CCN1`, 1.2%; in that of `Cc1nc(N2CCN(C(=O)CC3CCCC3)CC2)c2cnn(C)c2n1`, 0.786%.
`CC(Nc1cccc2c1OCCO2)C(=O)Nc1ccc(Cl)cc1` (stereo not given): the cytotoxicity at 70.5 h came out at 2.81%.
For `Cc1nn(C)c(Cl)c1C1CCCN1CC(=O)NC1CCCC1` (stereo not given) the value was 2.37%; for `CCNC(=O)NCC1(CN2CCOCC2)CCCCC1`, 0.842%.
For `COC(=O)N1CCC(Nc2ccc(Cl)c(C#N)n2)C1` (stereo not given) the value was -2.14%; for `Cc1nn(C)cc1C(=O)NCc1cc(N(C)C)nc2ccccc12`, -0.83%.
In the case of `O=C(COC1CCCC1)NCCc1noc(-c2ccccn2)n1` it was -5.96%; in that of `CCN(C)C(=O)NCC1(CN2CCOCC2)CCCCC1`, -4.49%.
Regarding `CCOCCC1(CNC(=O)c2ccsc2)CCC1`, the cytotoxicity at 70.5 h was -5.98%.
In the case of `Cc1nn(C)c(Cl)c1C1CCCN1CC(=O)N1CCOCC1` (stereo not given) it was 1.93%; in that of `CC1CCC(NC(=O)CNC2(c3ccc(F)cc3)CCOCC2)CC1` (stereo not given), -3.54%.
For the compound `Cc1nn(C)c(C)c1CC(=O)N1CCCC(CNS(C)(=O)=O)C1` (stereo not given), the cytotoxicity at 70.5 h is -0.898%.
`CC(Cn1cccn1)C(=O)N1CCCN(Cc2cscn2)CC1` (stereo not given): the cytotoxicity at 70.5 h is -0.68%.
For `O=C(c1ccoc1)N(Cc1ccccn1)C1CC1` the value was -14.2%; for `COC(=O)c1cc(OC)ccc1NCC(=O)NCC(=O)N1CCCC1`, -17.6%.
In the case of `NC(=O)C1CCN(CCc2ccc(NCc3cscn3)cc2)CC1` it was -12.5%; in that of `Cc1cc(CCCC(=O)NC2CCN(C)C2=O)c(C)s1` (stereo not given), -9.64%.
In the case of `CN(C)C(=O)C1CCCN1c1ccnc2ccsc12` (stereo not given) it was -7.45%; in that of `CC(NCCN1CCN(C(=O)C2CCCC2)CC1)c1ccccn1` (stereo not given), -2.99%.
As for `CCOC(=O)c1cnn(C2CCN(C(=O)CC3CCCC3)CC2)c1N`, the cytotoxicity at 70.5 h was -2.45%.

The values above are taken from ChEMBL document CHEMBL3507680, “University of Dundee, Gates Library screen for HepG2 cell viability”.
